Reference: US8906914B2, “Ethylene diamine modulators of fatty acid hydrolase” (priority 2009, dated 2014)
Counter-ions that a name gives are not always drawn.

Tests used:
anxiety = settings: rats; Kathuria 2003; cited from earlier work
nociception = settings: rat; Kathuria 2003; cited from earlier work
thermal nociception [1] = settings: rat; cited from earlier work
spasticity = settings: Baker 2001; cited from earlier work
Rat FAAH-1 = target: T1, Rat FAAH-1 (Rattus norvegicus, UniProt P97612); assay: Rat FAAH-1 assay (Assay Method 2), 3H-anandamide hydrolysis in cell homogenate; type: biochemical
T1 construct: expressed in transfected cells
T1 sequence (P97612 1-579): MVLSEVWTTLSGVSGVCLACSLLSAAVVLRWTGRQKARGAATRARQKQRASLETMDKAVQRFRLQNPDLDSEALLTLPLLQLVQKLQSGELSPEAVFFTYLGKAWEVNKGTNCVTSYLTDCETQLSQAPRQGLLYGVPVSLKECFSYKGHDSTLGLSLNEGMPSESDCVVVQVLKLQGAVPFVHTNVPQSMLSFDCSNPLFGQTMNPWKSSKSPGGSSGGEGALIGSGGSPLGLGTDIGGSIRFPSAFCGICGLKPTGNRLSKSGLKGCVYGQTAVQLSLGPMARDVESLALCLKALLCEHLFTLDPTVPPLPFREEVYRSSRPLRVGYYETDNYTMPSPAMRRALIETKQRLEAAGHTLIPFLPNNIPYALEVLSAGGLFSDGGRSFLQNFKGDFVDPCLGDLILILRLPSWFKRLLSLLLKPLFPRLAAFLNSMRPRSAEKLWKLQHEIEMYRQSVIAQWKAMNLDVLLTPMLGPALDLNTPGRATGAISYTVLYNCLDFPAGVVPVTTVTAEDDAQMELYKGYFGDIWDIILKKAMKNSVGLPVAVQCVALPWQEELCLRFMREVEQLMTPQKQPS
In short: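 Homogenate of SK-N-MC cells stably transfected with rat FAAH cDNA, incubated with test compound and 80 nM final 3H-anandamide (ethanolamine-labelled) for 1 h at rt. Released 3H-ethanolamine separated from substrate on activated charcoal filters by centrifugation and counted by scintillation.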

FAAH [2] = target: T2, FAAH (Homo sapiens, UniProt O00519); assay: Human FAAH assay (Assay Method 1), 3H-anandamide hydrolysis in cell homogenate; type: biochemical; set-up: expressed in transfected cells; alternatively T84 frozen cell pellets (endogenous FAAH)
T2 sequence (O00519 1-579): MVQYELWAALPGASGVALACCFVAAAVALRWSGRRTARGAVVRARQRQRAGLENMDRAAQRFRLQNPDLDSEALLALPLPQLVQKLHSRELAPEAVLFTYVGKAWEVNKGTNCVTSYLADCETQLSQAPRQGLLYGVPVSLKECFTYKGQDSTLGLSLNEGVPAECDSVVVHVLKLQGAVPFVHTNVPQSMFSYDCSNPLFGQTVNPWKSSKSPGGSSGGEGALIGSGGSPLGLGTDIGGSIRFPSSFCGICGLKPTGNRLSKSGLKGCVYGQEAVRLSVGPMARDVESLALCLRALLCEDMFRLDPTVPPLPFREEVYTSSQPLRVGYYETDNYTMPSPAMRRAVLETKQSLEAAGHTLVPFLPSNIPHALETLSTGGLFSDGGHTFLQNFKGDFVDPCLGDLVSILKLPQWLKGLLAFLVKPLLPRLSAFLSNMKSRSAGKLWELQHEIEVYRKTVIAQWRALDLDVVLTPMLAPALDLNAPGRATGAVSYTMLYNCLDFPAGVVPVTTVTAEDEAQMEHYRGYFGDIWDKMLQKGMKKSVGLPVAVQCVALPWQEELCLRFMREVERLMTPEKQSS
In short: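 Homogenate of SK-N-MC cells stably transfected with human FAAH, incubated with compound and 80 nM (final) 3H-anandamide for 1 h at rt. Released 3H-ethanolamine separated from substrate on activated charcoal by centrifugation and counted by scintillation; ">" values denote solubility limit or top concentration tested.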

[3] = test system: acute thermal nociception; settings: rats; WO 02/087569; cited from earlier work
neuropathic pain = settings: rats; WO 02/087569; cited from earlier work
FAAH [4] = target: T2, FAAH; settings: reported; cited from earlier work
thermal nociception [5] = settings: rats; WO 04/033652; cited from earlier work

| Structure (SMILES) | IC50 (Rat FAAH-1) | IC50 (FAAH [2]) | other results |
| --- | --- | --- | --- |
| NC(=O)c1cccc(-c2cccc(OC(=O)NC3CCCCC3)c2)c1 [URB-597] | – | – | efficacy in zero plus maze model of anxiety (anxiety): efficacy; analgesic efficacy in formalin test (nociception): analgesic efficacy; analgesic efficacy/activity in hot plate test (thermal nociception [1]): analgesic efficacy |
| CCCCCCCCCCCCCCCCS(=O)(=O)F [AM374] | – | – | spasticity in CREAE mice (spasticity): significantly reduce spasticity |
| Cc1nc(-c2ccccc2)c(-c2ccccc2)n1CCCCCCNC(=O)Oc1ccccc1F [BMS-1] | – | – | analgesic effect in Hargraves test [3]: analgesic effect; analgesic effect in Chung spinal nerve ligation model (neuropathic pain): analgesic effect |
| O=C(CCCCCCc1ccccc1)c1ncc(-c2ccccn2)o1 [OL-135] | – | – | inhibition of FAAH (FAAH [4]): potent inhibitor; analgesic efficacy/activity in hot plate test (thermal nociception [1]): analgesic activity; analgesic activity in tail emersion test (thermal nociception [5]): analgesic activity |
| CS(=O)(=O)c1ccc([C@@H](N)CNc2cc(-c3ccc(C(F)(F)F)c(Cl)c3)ncn2)cc1 [Example 63, (1R)—N^2-[6-(3-Chloro-4-trifluoromethyl-phenyl)-pyrimidin-4-yl]-1-(4-methanesulfonyl-phenyl)-ethane-1,2-diamine] | > 10000 nM | > 10000 nM | – |
| N[C@@H](CNc1cc(-c2ccc(C(F)(F)F)c(F)c2)ncn1)c1ccccc1 [Example 4, (1R)—N^2-{6-[3-Fluoro-4-(trifluoromethyl)phenyl]pyrimidin-4-yl}-1-phenylethane-1,2-diamine hydrochloride acid salt] | 320 nM | 100 nM | – |
| N[C@@H](CNc1cc(-c2cccc(OC(F)(F)F)c2)ncn1)c1ccccc1 [Example 18, (1R)-1-Phenyl-N^2-{6-[3-(trifluoromethoxy)phenyl]pyrimidin-4-yl}ethane-1,2-diamine hydrochloride acid salt] | > 10000 nM | 920 nM | – |
| O=C(N[C@@H](CNc1cc(-c2ccc(C(F)(F)F)c(Cl)c2)ncn1)c1ccccc1)C(F)(F)F [Example 26, N-[(1R)-2-({6-[3-chloro-4-(trifluoromethyl)phenyl]pyrimidin-4-yl}amino)-1-phenylethyl]-2,2,2-trifluoroacetamide] | > 10000 nM | 1600 nM | – |

Now from value to compound, other results behind:

| IC50 (Rat FAAH-1) | IC50 (FAAH [2]) | Structure (SMILES) | other results |
| --- | --- | --- | --- |
| 2600 nM | 1000 nM | N[C@H](CNc1cc(-c2ccc(C(F)(F)F)c(Cl)c2)ncn1)c1cccc(F)c1 [Example 36, (1S)—N^2-[6-(3-Chloro-4-trifluoromethyl-phenyl)-pyrimidin-4-yl]-1-(3-fluoro-phenyl)-ethane-1,2-diamine, trifluoroacetic acid salt] | – |
| 770 nM | 1000 nM | N#Cc1cccc([C@@H](N)CNc2cc(-c3ccc(C(F)(F)F)c(Cl)c3)ncn2)c1 [Example 49, (1R)-3-{1-Amino-2-[6-(3-chloro-4-trifluoromethyl-phenyl)-pyrimidin-4-ylamino]-ethyl}-benzonitrile] | – |
| 2200 nM | 1600 nM | N[C@H](CNc1cc(-c2ccc(C(F)(F)F)c(Cl)c2)ncn1)c1ccc(Cl)cc1 [Example 38, (1S)—N^2-1-(4-Chloro-phenyl)-[6-(3-chloro-4-trifluoromethyl-phenyl)-pyrimidin-4-yl]-ethane-1,2-diamine, trifluoroacetic acid salt] | – |
| 120 nM | 53 nM | N[C@@H](CNc1cc(-c2ccc(OC(F)(F)F)c(Cl)c2)ncn1)c1ccccc1 [Example 7, (1R)—N^2-{6-[3-Chloro-4-(trifluoromethoxy)phenyl]pyrimidin-4-yl}-1-phenylethane-1,2-diamine hydrochloride acid salt] | – |
| 40 nM | 66 nM | N[C@@H](CNc1cc(-c2ccc(C(F)(F)F)c(Cl)c2)ncn1)c1ccc(Cl)cc1 [Example 39, (1R)—N^2-1-(4-Chloro-phenyl)-[6-(3-chloro-4-trifluoromethyl-phenyl)-pyrimidin-4-yl]-ethane-1,2-diamine, trifluoroacetic acid salt] | – |
| 2400 nM | 1300 nM | N[C@H](CNc1cc(-c2ccc(C(F)(F)F)c(Cl)c2)ncn1)c1ccccc1 [Example 3, (1S)—N^2-{6-[3-Chloro-4-(trifluoromethyl)phenyl]pyrimidin-4-yl}-1-phenylethane-1,2-diamine hydrochloride acid salt] | – |
| 900 nM | 600 nM | N[C@H](CNc1cc(-c2ccc(C(F)(F)F)c(Cl)c2)ncn1)c1ccc(F)cc1 [Example 28, (1S)—N^2-[6-(3-Chloro-4-trifluoromethyl-phenyl)-pyrimidin-4-yl]-1-(4-fluoro-phenyl)-ethane-1,2-diamine] | – |
| 170 nM | 50 nM | N[C@@H](CNc1cc(-c2ccc(OC(F)(F)F)c(F)c2)ncn1)c1ccccc1 [Example 8, (1R)—N^2-{6-[3-Fluoro-4-(trifluoromethoxy)phenyl]pyrimidin-4-yl}-1-phenylethane-1,2-diamine hydrochloride acid salt] | – |
| 3000 nM | 3000 nM | N#Cc1cccc([C@H](N)CNc2cc(-c3ccc(C(F)(F)F)c(Cl)c3)ncn2)c1 [Example 48, (1S)-3-{1-Amino-2-[6-(3-chloro-4-trifluoromethyl-phenyl)-pyrimidin-4-ylamino]-ethyl}-benzonitrile] | – |
| 60 nM | 50 nM | N[C@@H](CNc1cc(-c2ccc(C(F)(F)F)c(Cl)c2)ncn1)c1ccccc1 [Example 1, (1R)—N^2-{6-[3-Chloro-4-(trifluoromethyl)phenyl]pyrimidin-4-yl}-1-phenylethane-1,2-diamine hydrochloride acid salt] | – |
